Measurements published in patent US7326697B2, “Methods for increasing the therapeutic response to electroconvulsive therapy” (Corcept Therapeutics, Inc., priority 2002, dated 2008).

Tests used:
[1] = in one study; cited from earlier work
[2] = Case: mental illness treated with mifepristone therapy followed by bilateral ECT; format: in vivo; conditions: one patient
Method: The patient subsequently underwent four treatments of bilateral ECT while continuing mifepristone therapy. […] During each treatment session, the patient received between 60 and 100 mg of methohexital and between 60 and 80 mg of succinylcholine.
For the first ECT treatment, the patient was delivered a stimulus using the Thymatron ECT device at 35% with […] eeg seizure duration and 115 second motor duration. After the first treatment, the patient was better able to organize their thoughts and was able to engage in more appropriate conversations. The second treatment was also at 35%, but the eeg duration decreased to 61 seconds and no motor seizure was detected. Consequently on the third treatment, the energy setting was increased to 40% with 115 second eeg duration and 91 second motor duration. After the third treatment, the patient had fewer somatic delusions, was able to comprehend written text and was easier to engage in conversation.

CC#C[C@]1(O)CC[C@H]2[C@@H]3CCC4=CC(=O)CCC4=C3[C@@H](c3ccc(N(C)C)cc3)C[C@@]21C [mifepristone, (11β, 17β)-11-[4-(dimethylamino)phenyl]-17-hydroxy-17-(1-propynyl)estra-4,9-dien-3-one]
fraction of the daily dose excreted in the urine [1]: less than 0.5%
clinical response to ECT while continuing mifepristone therapy ([2]; after four treatments of bilateral ECT, before the fifth): dramatically improved
clinical response to mifepristone therapy alone ([2]; before ECT): not significantly improving
side-effects of ECT with continued mifepristone therapy ([2]; four treatments of bilateral ECT): some impairment in short term memory but otherwise had no side-effects
